Source: ChEMBL document CHEMBL1123608, “In vivo antitumor activity of 6-benzyl-1,3-benzodioxole derivatives against the P388, L1210, B16, and M5076 murine models” (1987)
Values joined by “and” are separate entries in the source; they are usually repeats but may differ in a detail not shown here. Equal entries are not always repeated. Active and inactive are the calls of the source. No cut-off for these calls is given here.

How the values were obtained:
Mus musculus [1] = test: The percent increase in life span on P388 cells which were inoculated intraperitoneally in CD2F1 mice at 200 mg/kg dose placed at ranking order 3; assay type: functional; settings: P388, ip, route intraperitoneal
Mus musculus [2] = test: In vivo antitumor activity against the M5076 reticulum cell sarcoma expressed as percent increase in life span at 500 mg/kg dose; assay type: functional
Mus musculus [3] = test: In vivo antitumor activity against the B16 melanoma cell line expressed as percent increase in life span at 200 mg/kg dose; assay type: functional
Mus musculus [4] = test: The percent increase in life span on P388 cells which were inoculated intraperitoneally in CD2F1 mice at 400 mg/kg dose placed at ranking order 2; assay type: functional; settings: P388, ip, route intraperitoneal
Mus musculus [5] = test: The percent increase in life span on P388 cells which were inoculated intraperitoneally in CD2F1 mice at 200 mg/kg dose placed at ranking order 1; assay type: functional; settings: P388, ip, route intraperitoneal
Mus musculus [6] = test: Percent increase in life span (ILS) was measured on P388 cells which were inoculated intraperitoneally in CD2F1 mice; assay type: functional
Mus musculus [7] = test: In vivo antitumor activity against the B16 melanoma cell line expressed as percent increase in life span at 100 mg/kg dose; assay type: functional
Mus musculus [8] = test: The percent increase in life span on P388 cells which were inoculated intraperitoneally in CD2F1 mice at 300 mg/kg dose placed at ranking order 4; assay type: functional; settings: P388, ip, route intraperitoneal
Mus musculus [9] = test: In vivo antitumor activity against the L1210 leukemia cell line expressed as percent increase in life span at 200 mg/kg dose; assay type: functional; settings: for ILS: dose 200 mg/kg
[10] = Ability to inhibit the dibutyryl-cAMP-induced change of an immature glioma cell to a mature, differentiated astrocyte by in vitro astrocytoma assay at 10 ug/mL dose (Experiment #1); value may range from 91 to up; assay type: functional, Mus musculus
[11] = Ability to inhibit the dibutyryl-cAMP-induced change of an immature glioma cell to a mature, differentiated astrocyte by in vitro astrocytoma assay at 0.1 ug/mL dose (Experiment #1); value may range from 0 to 5; assay type: functional, Mus musculus
[12] = Ability to inhibit the dibutyryl-cAMP-induced change of an immature glioma cell to a mature, differentiated astrocyte by in vitro astrocytoma assay at 1 ug/mL dose (Experiment #1); value may range from 51 to 70; assay type: functional, Mus musculus
[13] = Ability to inhibit the dibutyryl-cAMP-induced change of an immature glioma cell to a mature, differentiated astrocyte by in vitro astrocytoma assay at 1 ug/mL dose (Experiment #2); value may range from 51 to 70; assay type: functional, Mus musculus
[14] = Ability to inhibit the dibutyryl-cAMP-induced change of an immature glioma cell to a mature, differentiated astrocyte by in vitro astrocytoma assay at 0.1 ug/mL dose (Experiment #2); value may range from 0 to 5; assay type: functional, Mus musculus
[15] = Ability to inhibit the dibutyryl-cAMP-induced change of an immature glioma cell to a mature, differentiated astrocyte by in vitro astrocytoma assay at 10 ug/mL dose (Experiment #2); value may range from 91 to up; assay type: functional, Mus musculus
Mus musculus [16] = test: In vivo antitumor activity against the B16 melanoma cell sarcoma expressed as percent increase in life span; IA means inactive; assay type: functional, organism-based
Mus musculus [17] = test: In vivo antitumor activity against the M5076 reticulum cell sarcoma expressed as percent increase in life span; IA means inactive; assay type: functional, organism-based
Mus musculus [18] = test: The percent increase in life span on P388 cells which were inoculated intraperitoneally in CD2F1 mice at 400 mg/kg (tested in the same control) dose placed at ranking order 4; assay type: functional; settings: P388, ip, route intraperitoneal
Mus musculus [19] = test: The percent increase in life span on P388 cells which were inoculated intraperitoneally in CD2F1 mice at 400 mg/kg dose placed at ranking order 1; assay type: functional; settings: P388, ip, route intraperitoneal
Mus musculus [20] = test: The percent increase in life span on P388 cells which were inoculated intraperitoneally in CD2F1 mice at 400 mg/kg dose placed at ranking order 3; assay type: functional; settings: P388, ip, route intraperitoneal
Mus musculus [21] = test: The percent increase in life span on P388 cells which were inoculated intraperitoneally in CD2F1 mice at 200 mg/kg dose placed at ranking order 2; assay type: functional; settings: P388, ip, route intraperitoneal
Mus musculus [22] = test: In vivo antitumor activity against the L1210 leukemia cell line expressed as percent increase in life span; IA means inactive; assay type: functional, organism-based
[23] = Ability to inhibit the dibutyryl-cAMP-induced change of an immature glioma cell to a mature, differentiated astrocyte by in vitro astrocytoma assay at 1 ug/mL dose (Experiment #1); value may range from 0 to 5; assay type: functional, Mus musculus
[24] = Ability to inhibit the dibutyryl-cAMP-induced change of an immature glioma cell to a mature, differentiated astrocyte by in vitro astrocytoma assay at 100 ug/mL dose (Experiment #1); value may range from 16 to 30; assay type: functional, Mus musculus
Mus musculus [25] = test: The percent increase in life span on P388 cells which were inoculated intraperitoneally in CD2F1 mice at 100 mg/kg dose placed at ranking order 4; assay type: functional; settings: P388, ip, route intraperitoneal
[26] = Ability to inhibit the dibutyryl-cAMP-induced change of an immature glioma cell to a mature, differentiated astrocyte by in vitro astrocytoma assay at 1 ug/mL dose (Experiment #2); value may range from 0 to 5; assay type: functional, Mus musculus
[27] = Ability to inhibit the dibutyryl-cAMP-induced change of an immature glioma cell to a mature, differentiated astrocyte by in vitro astrocytoma assay at 100 ug/mL dose (Experiment #2); value may range from 16 to 30; assay type: functional, Mus musculus
[28] = Ability to inhibit the dibutyryl-cAMP-induced change of an immature glioma cell to a mature, differentiated astrocyte by in vitro astrocytoma assay at 10 ug/mL dose (Experiment #2); value may range from 0 to 5; assay type: functional, Mus musculus
[29] = Ability to inhibit the dibutyryl-cAMP-induced change of an immature glioma cell to a mature, differentiated astrocyte by in vitro astrocytoma assay at 10 ug/mL dose (Experiment #1); value may range from 6 to 15; assay type: functional, Mus musculus
Mus musculus [30] = test: The percent increase in life span on P388 cells which were inoculated intraperitoneally in CD2F1 mice at 100 mg/kg dose placed at ranking order 1; assay type: functional; settings: P388, ip, route intraperitoneal
Mus musculus [31] = test: In vivo antitumor activity against the B16 melanoma cell line expressed as percent increase in life span; IA means inactive; assay type: functional, organism-based
Mus musculus [32] = test: The percent increase in life span on P388 cells which were inoculated intraperitoneally in CD2F1 mice at 100 mg/kg dose placed at ranking order 2; assay type: functional; settings: P388, ip, route intraperitoneal
[33] = Ability to inhibit the dibutyryl-cAMP-induced change of an immature glioma cell to a mature, differentiated astrocyte by in vitro astrocytoma assay at 1 ug/mL dose (Experiment #1); value may range from 16 to 30; assay type: functional, Mus musculus
[34] = Ability to inhibit the dibutyryl-cAMP-induced change of an immature glioma cell to a mature, differentiated astrocyte by in vitro astrocytoma assay at 1 ug/mL dose (Experiment #2) value may range from 16 to 30; assay type: functional, Mus musculus
[35] = Ability to inhibit the dibutyryl-cAMP-induced change of an immature glioma cell to a mature, differentiated astrocyte by in vitro astrocytoma assay at 100 ug/mL dose (Experiment #2)value may range from 71 to 90; assay type: functional, Mus musculus
[36] = Ability to inhibit the dibutyryl-cAMP-induced change of an immature glioma cell to a mature, differentiated astrocyte by in vitro astrocytoma assay at 100 ug/mL dose (Experiment #1); value may range from 91 to up; assay type: functional, Mus musculus
[37] = Ability to inhibit the dibutyryl-cAMP-induced change of an immature glioma cell to a mature, differentiated astrocyte by in vitro astrocytoma assay at 10 ug/mL dose (Experiment #2); value may range from 31 to 50; assay type: functional, Mus musculus
[38] = Ability to inhibit the dibutyryl-cAMP-induced change of an immature glioma cell to a mature, differentiated astrocyte by in vitro astrocytoma assay at 10 ug/mL dose (Experiment #1); value may range from 31 to 50; assay type: functional, Mus musculus

Question: For `CCOc1ccc(C(C)c2cc3c(cc2OC)OCO3)cc1` (stereo not given), which ILS at 200 mg/kg (Mus musculus [1]) is on record?
Answer: 56%

Question: What about the ILS (Mus musculus [2]) of the same compound?
Answer: 49% and 27%

Question: And the ILS at 200 mg/kg (Mus musculus [3])?
Answer: 42%

Question: And the ILS at 400 mg/kg (Mus musculus [4])?
Answer: 61%

Question: What about the ILS at 200 mg/kg (Mus musculus [5]) of the same compound?
Answer: 78%

Question: What about the ILS (Mus musculus [6]) of the same compound?
Answer: 78%

Question: And the ILS at 100 mg/kg (Mus musculus [7])?
Answer: 29%

Question: What about the ILS at 300 mg/kg (Mus musculus [8]) of the same compound?
Answer: 31%

Question: What about the ILS (Mus musculus [9]) of the same compound?
Answer: 50% and 24%

Question: With `COc1cc2c(c(OC)c1OC)-c1ccc(OC)c(=O)cc1[C@@H](NC(C)=O)CC2` [COLCHICINE] as the compound, how does the Astrocyte reversal [10] read?
Answer: 91%

Question: What about the Astrocyte reversal [11] of the same compound?
Answer: 0%

Question: And the Astrocyte reversal [12]?
Answer: 51%

Question: What about the Astrocyte reversal [13] of the same compound?
Answer: 51%

Question: What about the Astrocyte reversal [14] of the same compound?
Answer: 0%

Question: And the Astrocyte reversal [15]?
Answer: 91%

Question: For `COc1cc(C(C)c2cc3c(cc2OCCO)OCO3)cc(OC)c1OC` (stereo not given), which ILS (Mus musculus [16]) is on record?
Answer: inactive

Question: And the ILS (Mus musculus [17])?
Answer: inactive

Question: And the ILS at 400 mg/kg (Mus musculus [18])?
Answer: 49%

Question: What about the ILS (Mus musculus [6]) of the same compound?
Answer: 80%

Question: What about the ILS at 400 mg/kg (Mus musculus [19]) of the same compound?
Answer: 80%

Question: What about the ILS at 400 mg/kg (Mus musculus [20]) of the same compound?
Answer: 61%

Question: What about the ILS at 200 mg/kg (Mus musculus [21]) of the same compound?
Answer: 66%

Question: And the ILS at 200 mg/kg (Mus musculus [9]; Mus musculus, L1210, dose 200 mg/kg)?
Answer: 43%

Question: What about the ILS (Mus musculus [9]) of the same compound?
Answer: 33%

Question: Which results are given for `COc1ccc(C(C)c2cc3c(cc2OC)OCO3)cc1` (stereo not given)?
Answer: ILS at 200 mg/kg (Mus musculus [1]): 74%; ILS (Mus musculus [22]): inactive; ILS (Mus musculus [17]): inactive; Astrocyte reversal [23]: 5%; Astrocyte reversal [24]: 30%; ILS at 100 mg/kg (Mus musculus [25]): 53%; ILS (Mus musculus [6]): 78%; Astrocyte reversal [26]: 5%; Astrocyte reversal [27]: 30%; Astrocyte reversal [28]: 5%; Astrocyte reversal [29]: 15%; ILS at 100 mg/kg (Mus musculus [30]): 78%; ILS (Mus musculus [31]): inactive; ILS at 100 mg/kg (Mus musculus [32]): 76%

Question: Which results are given for `CCOc1cc2c(cc1C(C)c1ccc(OC)cc1)OCO2` (stereo not given)?
Answer: Astrocyte reversal [33]: 30%; ILS (Mus musculus [22]): inactive; ILS (Mus musculus [17]): inactive; Astrocyte reversal [34]: 30%; ILS (Mus musculus [6]): 25%; Astrocyte reversal [35]: 90%; ILS at 100 mg/kg (Mus musculus [30]): 25%; Astrocyte reversal [36]: 91%; ILS (Mus musculus [31]): inactive; Astrocyte reversal [37]: 50%; ILS at 100 mg/kg (Mus musculus [32]): 23%; Astrocyte reversal [38]: 50%
